Experiments:
TAAR1 = experiment: Calculated Kd of the radioligand used in the TAAR1 binding assay; details: species not stated
Experimental: Each experiment was performed in duplicate.

mouse TAAR1 = mouse TAAR1 (Mus musculus, UniProt Q923Y8); experiment: Radioligand binding on membranes of HEK293 cells stably expressing mouse TAAR1
rat TAAR1 = rat TAAR1 (Rattus norvegicus, UniProt Q923Y9); experiment: Radioligand binding on membranes of HEK293 cells stably expressing rat TAAR1
rat TAAR1, sequence (Q923Y9 whole entry): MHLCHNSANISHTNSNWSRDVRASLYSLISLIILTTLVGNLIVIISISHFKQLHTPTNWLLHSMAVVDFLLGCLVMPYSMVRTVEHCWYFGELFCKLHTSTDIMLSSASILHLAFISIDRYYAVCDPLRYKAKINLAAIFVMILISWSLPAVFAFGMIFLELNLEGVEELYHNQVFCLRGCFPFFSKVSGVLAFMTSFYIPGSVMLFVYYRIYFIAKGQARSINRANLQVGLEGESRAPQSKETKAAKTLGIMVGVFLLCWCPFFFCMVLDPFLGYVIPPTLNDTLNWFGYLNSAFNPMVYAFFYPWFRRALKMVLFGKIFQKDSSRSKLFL

mouse TAAR1, sequence (Q923Y8 whole entry): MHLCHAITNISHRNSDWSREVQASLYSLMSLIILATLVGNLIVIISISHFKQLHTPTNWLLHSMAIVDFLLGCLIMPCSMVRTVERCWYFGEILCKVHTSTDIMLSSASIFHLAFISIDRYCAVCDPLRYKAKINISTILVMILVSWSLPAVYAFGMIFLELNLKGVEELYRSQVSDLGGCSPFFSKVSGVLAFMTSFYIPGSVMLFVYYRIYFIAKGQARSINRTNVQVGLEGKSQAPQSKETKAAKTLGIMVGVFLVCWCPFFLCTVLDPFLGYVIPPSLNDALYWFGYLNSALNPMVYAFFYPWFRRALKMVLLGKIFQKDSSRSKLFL

Row | Compound | Ki (mouse TAAR1) [nM] | Ki (rat TAAR1) [nM] | Kd (TAAR1) [nM]
1 | c1ccc2c(c1)CCCC2C1=NCCN1 (racemic) |  |  | 60
2 | COc1cc(N(C)C[C@@H]2COC(N)=N2)ccc1F [Example 138, (R)-4-{[(4-Fluoro-3-methoxy-phenyl)-methyl-amino]-methyl}-4,5-dihydro-oxazol-2-ylamine] | 4.4 | 9.3 | 
3 | CCN(C[C@@H]1COC(N)=N1)c1ccc(F)c(OC)c1 [Example 139, (R)-4-{[Ethyl-(4-fluoro-3-methoxy-phenyl)-amino]-methyl}-4,5-dihydro-oxazol-2-ylamine] | 4.1 | 1.6 | 
4 | COc1cc(N(C)C[C@@H]2COC(N)=N2)ccc1Cl [Example 140, (R)-4-{[(4-Chloro-3-methoxy-phenyl)-methyl-amino]-methyl}-4,5-dihydro-oxazol-2-ylamine] | 2.6 | 4.1 | 
5 | CCN(C[C@@H]1COC(N)=N1)c1ccc(Cl)c(OC)c1 [Example 141, (R)-4-{[(4-Chloro-3-methoxy-phenyl)-ethyl-amino]-methyl}-4,5-dihydro-oxazol-2-ylamine] | 3.4 | 0.9 | 
6 | CCN(C[C@H]1COC(N)=N1)c1ccc(F)cc1F [Example 145, (S)-4-{[(2,4-Difluoro-phenyl)-ethyl-amino]-methyl}-4,5-dihydro-oxazol-2-ylamine] | 8.2 | 4.8 | 
7 | CN(C[C@H]1COC(N)=N1)c1ccc(F)cc1F [Example 146, (S)-4-{[(2,4-Difluoro-phenyl)-methyl-amino]-methyl}-4,5-dihydro-oxazol-2-ylamine] | 3.1 | 6.2 | 
8 | NC1=N[C@@H](CNc2ccc(F)cc2F)CO1 [Example 152, (S)-4-[(2,4-Difluoro-phenylamino)-methyl]-4,5-dihydro-oxazol-2-ylamine] | 3.2 | 7.2 | 
9 | CN(C[C@@H]1COC(N)=N1)c1ccc(Cl)c(Cl)c1 [Example 157, (R)-4-{[(3,4-Dichloro-phenyl)-methyl-amino]-methyl}-4,5-dihydro-oxazol-2-ylamine] | 1.7 | 2.1 | 
10 | CCN(C[C@@H]1COC(N)=N1)c1ccc(Cl)c(Cl)c1 [Example 158, (R)-4-{[(3,4-Dichloro-phenyl)-ethyl-amino]-methyl}-4,5-dihydro-oxazol-2-ylamine] | 2.2 | 0.4 | 
11 | CC(C)N(C[C@@H]1COC(N)=N1)c1ccc(Cl)c(Cl)c1 [Example 159, (R)-4-{[(3,4-Dichloro-phenyl)-isopropyl-amino]-methyl}-4,5-dihydro-oxazol-2-ylamine] | 5.3 | 1.4 | 

Now from value to compound, other results behind:

Row | Ki (mouse TAAR1) [nM] | Ki (rat TAAR1) [nM] | Compound | Kd (TAAR1) [nM]
12 | 1.3 | 0.9 | CN(C[C@H]1COC(N)=N1)c1cc(Cl)cc(Cl)c1 [Example 160, (S)-4-{[(3,5-Dichloro-phenyl)-methyl-amino]-methyl}-4,5-dihydro-oxazol-2-ylamine] | 
13 | 7.7 | 15.5 | CN(C[C@@H]1COC(N)=N1)c1ccc2ccccc2c1 [Example 162, (R)-4-[(Methyl-naphthalen-2-yl-amino)-methyl]-4,5-dihydro-oxazol-2-ylamine] | 
14 | 2.9 | 5.2 | CCN(C[C@@H]1COC(N)=N1)c1ccc2ccccc2c1 [Example 163, (R)-4-[(Ethyl-naphthalen-2-yl-amino)-methyl]-4,5-dihydro-oxazol-2-ylamine] | 
15 | 1.4 | 0.9 | CCN(C[C@H]1COC(N)=N1)c1cc(Cl)cc(Cl)c1 [Example 165, (S)-4-{[(3,5-Dichloro-phenyl)-ethyl-amino]-methyl}-4,5-dihydro-oxazol-2-ylamine] | 
16 | 5.1 | 9.7 | CCN(C[C@@H]1COC(N)=N1)c1cc(F)cc(C(F)(F)F)c1 [Example 167, (R)-4-{[Ethyl-(3-fluoro-5-trifluoromethyl-phenyl)-amino]-methyl}-4,5-dihydro-oxazol-2-ylamine] | 
17 | 9.2 | 8.3 | CCN(C[C@H]1COC(N)=N1)c1ccc(C(F)(F)F)cc1C [Example 175, (S)-4-{[Ethyl-(2-methyl-4-trifluoromethyl-phenyl)-amino]-methyl}-4,5-dihydro-oxazol-2-ylamine] | 
